Measurements reported in ChEMBL document CHEMBL1131940 (Bioorg Med Chem Lett, 1999).

Target: Estrogen receptor (Homo sapiens, UniProt Q92731+P03372)
Conditions: mcf-7
Description: In vitro inhibition of estrogen-stimulated MCF-7 cell proliferation

Compound | IC50 [nM]
CN(CCN1CCCCC1)c1ccc(C(=O)c2c(-c3ccc(O)cc3)sc3cc(O)ccc23)cc1 | 10
O=C(c1ccc(CCCN2CCCCC2)cc1)c1c(-c2ccc(O)cc2)sc2cc(O)ccc12 | 10
O=C(c1ccc(S(=O)(=O)CCN2CCCCC2)cc1)c1c(-c2ccc(O)cc2)sc2cc(O)ccc12 | 30
O=C(c1ccc(NCCN2CCCCC2)cc1)c1c(-c2ccc(O)cc2)sc2cc(O)ccc12 | 2
COc1ccc(-c2sc3cc(OC)ccc3c2C(=O)c2ccc(S(=O)(=O)CCN3CCCCC3)cc2)cc1 | > 1000
O=C(c1ccc(SCCN2CCCCC2)cc1)c1c(-c2ccc(O)cc2)sc2cc(O)ccc12 | 0.9
COc1ccc(-c2sc3cc(OC)ccc3c2C(=O)c2ccc(CCCN3CCCCC3)cc2)cc1 | 1000
